From publication PMC7215935, “GM1 Oligosaccharide Crosses the Human Blood–Brain Barrier In Vitro by a Paracellular Route” (International Journal of Molecular Sciences, 2020)

Columns and labels:
N2a cells = test: N2a differentiation by hBLEC-crossed OligoGM1 (morphology); format: cell-based, mouse; details: basolateral solution (~25 μM), 24 h
Description: For differentiation experiments, N2a cells were seeded at 5 × 10^3/cm^2 and incubated for 24 h in regular culture condition to allow cell attachment. Before all treatments, growth medium was removed and cells were adapted for 30 min in pre-warmed (37 °C) Transfectagro medium containing 2% heat-inactivated FBS, 1% L-glutamine, and 1% penicillin/streptomycin solution. All treatments were conducted at 37 °C in a humidified atmosphere of 95% air/5% CO2.
Precisely, [^3H]OligoGM1 (1 × 10^6 dpm) diluted into cold OligoGM1 solution (300 µM) was administered for 240 min to hBLECs in the upper compartment so that at a volume of 0.5 mL there was 150 nmol of OligoGM1. […] After the 240 min incubation period, the basolateral solution was screened to find the quantity of crossed OligoGM1 by measuring ^3H-radioactivity and was then administered to N2a cells for 24 h. […] Morphological signals of neurodifferentiation were evaluated by cell observation and TrkA-ERK1/2 pathway activation was verified by immunoblotting (for procedural details see Supplementary Materials and [22, 23]). […]
Since mycoplasma could infect of Caco-2 cells, we validated the absence of any contamination by two methods (data not shown). […] Briefly culture supernatants were mixed with MycoAlert reagents according to manufacturer instruction and the luminescence was measured after 10 min using fluorimeter (BioTek, H1, Vermont, Winooski). […]

hBLECs = test: Toxicity on hBLECs / monolayer integrity by LY permeability in combination with test substance; format: cell-based, human; details: 10, 50, 100 and 300 μM with 50 μM LY, 60 min and over time (20, 40, 60 min)
Description: Prior to the experiments, in order to verify the hBLECs’ monolayer integrity and stability, the permeability parameters were verified as previously reported. Briefly, 1.5 mL Ringer–Hepes solution (RH) (150 mM NaCl, 5.2 mM KCl, 2.2 mM CaCl2, 0.2 mM MgCl26H2O, 6 mM NaHCO3, 5 mM HEPES, pH: 7.4) was added to empty wells of a 12-well plate. Filter insert containing confluent monolayers of hBLECs or not (control) were subsequently placed in the 12-well plate, filled with 0.5 mL RH buffer containing the fluorescent integrity marker LY (50 μM), and then placed on an orbital shaker (150 rpm, Heidolph Titramax 100) at 37 °C in a humidify atmosphere of 95% air/5% CO2. Every 20 min for 1 h, filter inserts were withdrawn from the receiver compartment and placed in the next one. To verify the quantity of LY, at the end of the experiments, aliquots from the donor solution were taken at the end of the experiments and the fluorescence was quantified using a quantification curve of LY as referee. At least three inserts with cells and three without cells were tested in each permeability measurement. The fluorescence was measured using a luminescence spectrometer (LS 50B, Perkin Elmer), using the following excitation/emission wavelength (nm) settings: 432/538. Pe parameters were calculated according to the formulas shown in the Supplementary Information (Equations (7)–(10)). In parallel, as positive control for breakdown of hBLECs, D-mannitol, was used at a concentration of 1.4 M. At this concentration, mannitol induces an osmotic shock, and thus an increase in paracellular permeability.
To evaluate the toxicity of GM1 and OligoGM1, the LY endothelial permeability (Pe) and apparent permeability (Papp) were considered for evaluation of hBLEC monolayer integrity after administration of compounds.
To examine the LY permeability, 1.5 mL of RH buffer was added to empty wells of a 12-well plate, then hBLEC filters were placed in the 12-well plate and filled with 0.5 mL RH buffer containing 50 μΜ LY plus OligoGM1 or GM1 at an appropriate test concentration (from 5 to 300 μΜ). The hBLEC inserts were moved every 20 min to a new RH-filled well up to 60 min. At the end of the incubation period, solutions were collected from apical and basolateral compartments, LY was quantified, and Papp was calculated as reported in the Supplementary Information (Equation (1)) and previously mentioned.

Compound: CC(=O)NC1C(O)CC(OC2C(O)C(OC3C(CO)OC(O)C(O)C3O)OC(CO)C2OC2OC(CO)C(O)C(OC3OC(CO)C(O)C(O)C3O)C2NC(C)=O)(C(=O)O)OC1C(O)C(O)CO (stereo not drawn) [OligoGM1, β-Gal-(1-3)-β-GalNAc-(1-4)-[α-Neu5Ac-(2-3)]-β-Gal-(1-4)-β-Glc]
- N2a cell morphology / neurite sprouting (N2a cells): induced a neuron-like morphology
- effect on LY Pe and Papp (toxicity to hBLECs) (hBLECs): no variations of LY Pe and Papp were observed
